± gives the expanded uncertainty stated by the source.
Test: mn = molality of the nth substance listed, in mol/kg
Details: 100 kPa, Liquid; for speed of sound: Frequency=3 MHz, Single path-length method; for mass density: Vibrating tube method

N[C@@H](CS)C(=O)O [(R)-2-amino-3-mercaptopropanoic acid] + O
speed of sound (288.15 K, m1 = 0.09747): 1474 ± 1 m/s | speed of sound (288.15 K, m1 = 0.1985): 1481.8 ± 1 m/s | speed of sound (288.15 K, m1 = 0.2986): 1489.5 ± 1 m/s | speed of sound (288.15 K, m1 = 0.3968): 1497.1 ± 1 m/s | speed of sound (288.15 K, m1 = 0.4932): 1504.5 ± 1 m/s | speed of sound (288.15 K, m1 = 0.6): 1512.7 ± 1 m/s | speed of sound (288.15 K, m1 = 0.6922): 1519.8 ± 1 m/s | mass density (288.15 K, m1 = 0.09747): 1003.7 ± 0.3 kg/m3 | mass density (288.15 K, m1 = 0.1985): 1008.47 ± 0.31 kg/m3 | mass density (288.15 K, m1 = 0.2986): 1013.2 ± 0.31 kg/m3 | mass density (288.15 K, m1 = 0.3968): 1017.83 ± 0.31 kg/m3 | mass density (288.15 K, m1 = 0.4932): 1022.38 ± 0.32 kg/m3 | mass density (288.15 K, m1 = 0.6): 1027.42 ± 0.33 kg/m3 | mass density (288.15 K, m1 = 0.6922): 1031.77 ± 0.34 kg/m3 | speed of sound (298.15 K, m1 = 0.09747): 1503.6 ± 1 m/s | speed of sound (298.15 K, m1 = 0.1985): 1510.9 ± 1 m/s | speed of sound (298.15 K, m1 = 0.2986): 1518 ± 1 m/s | speed of sound (298.15 K, m1 = 0.3968): 1525.1 ± 1 m/s | speed of sound (298.15 K, m1 = 0.4932): 1532 ± 1 m/s | speed of sound (298.15 K, m1 = 0.6): 1539.6 ± 1 m/s | speed of sound (298.15 K, m1 = 0.6922): 1546.2 ± 1 m/s | mass density (298.15 K, m1 = 0.09747): 1001.64 ± 0.3 kg/m3 | mass density (298.15 K, m1 = 0.1985): 1006.41 ± 0.31 kg/m3 | mass density (298.15 K, m1 = 0.2986): 1011.13 ± 0.31 kg/m3 | mass density (298.15 K, m1 = 0.3968): 1015.77 ± 0.31 kg/m3 | mass density (298.15 K, m1 = 0.4932): 1020.32 ± 0.32 kg/m3 | mass density (298.15 K, m1 = 0.6): 1025.36 ± 0.33 kg/m3 | mass density (298.15 K, m1 = 0.6922): 1029.71 ± 0.34 kg/m3 | speed of sound (308.15 K, m1 = 0.09747): 1525.8 ± 1 m/s | speed of sound (308.15 K, m1 = 0.1985): 1532.2 ± 1 m/s | speed of sound (308.15 K, m1 = 0.2986): 1538.6 ± 1 m/s | speed of sound (308.15 K, m1 = 0.3968): 1544.9 ± 1 m/s | speed of sound (308.15 K, m1 = 0.4932): 1551 ± 1 m/s | speed of sound (308.15 K, m1 = 0.6): 1557.8 ± 1 m/s | speed of sound (308.15 K, m1 = 0.6922): 1563.6 ± 1 m/s | mass density (308.15 K, m1 = 0.09747): 998.63 ± 0.3 kg/m3 | mass density (308.15 K, m1 = 0.1985): 1003.4 ± 0.31 kg/m3 | mass density (308.15 K, m1 = 0.2986): 1008.12 ± 0.31 kg/m3 | mass density (308.15 K, m1 = 0.3968): 1012.76 ± 0.31 kg/m3 | mass density (308.15 K, m1 = 0.4932): 1017.31 ± 0.32 kg/m3 | mass density (308.15 K, m1 = 0.6): 1022.35 ± 0.33 kg/m3 | mass density (308.15 K, m1 = 0.6922): 1026.7 ± 0.34 kg/m3 | speed of sound (318.15 K, m1 = 0.09747): 1541.9 ± 1 m/s | speed of sound (318.15 K, m1 = 0.1985): 1547.8 ± 1 m/s | speed of sound (318.15 K, m1 = 0.2986): 1553.6 ± 1 m/s | speed of sound (318.15 K, m1 = 0.3968): 1559.3 ± 1 m/s | speed of sound (318.15 K, m1 = 0.4932): 1564.8 ± 1 m/s | speed of sound (318.15 K, m1 = 0.6): 1571 ± 1 m/s | speed of sound (318.15 K, m1 = 0.6922): 1576.4 ± 1 m/s | mass density (318.15 K, m1 = 0.09747): 994.82 ± 0.3 kg/m3 | mass density (318.15 K, m1 = 0.1985): 999.59 ± 0.31 kg/m3 | mass density (318.15 K, m1 = 0.2986): 1004.32 ± 0.31 kg/m3 | mass density (318.15 K, m1 = 0.3968): 1008.96 ± 0.31 kg/m3 | mass density (318.15 K, m1 = 0.4932): 1013.51 ± 0.32 kg/m3 | mass density (318.15 K, m1 = 0.6): 1018.55 ± 0.33 kg/m3 | mass density (318.15 K, m1 = 0.6922): 1022.9 ± 0.34 kg/m3

CCCCCn1cc[n+](C)c1.[Br-] [1-pentyl-3-methylimidazolium bromide] + O
speed of sound (288.15 K, m1 = 0.005): 1467.7 ± 1 m/s | speed of sound (288.15 K, m1 = 0.01): 1468.5 ± 1 m/s | speed of sound (288.15 K, m1 = 0.03): 1470.8 ± 1 m/s | speed of sound (288.15 K, m1 = 0.05): 1473.7 ± 1 m/s | mass density (288.15 K, m1 = 0.005): 999.3 ± 0.3 kg/m3 | mass density (288.15 K, m1 = 0.01): 999.5 ± 0.3 kg/m3 | mass density (288.15 K, m1 = 0.03): 1000.31 ± 0.3 kg/m3 | mass density (288.15 K, m1 = 0.05): 1001.11 ± 0.3 kg/m3 | speed of sound (298.15 K, m1 = 0.005): 1497.3 ± 1 m/s | speed of sound (298.15 K, m1 = 0.01): 1498 ± 1 m/s | speed of sound (298.15 K, m1 = 0.03): 1500.3 ± 1 m/s | speed of sound (298.15 K, m1 = 0.05): 1502.8 ± 1 m/s | mass density (298.15 K, m1 = 0.005): 997.23 ± 0.3 kg/m3 | mass density (298.15 K, m1 = 0.01): 997.42 ± 0.3 kg/m3 | mass density (298.15 K, m1 = 0.03): 998.19 ± 0.3 kg/m3 | mass density (298.15 K, m1 = 0.05): 998.96 ± 0.3 kg/m3 | speed of sound (308.15 K, m1 = 0.005): 1520.3 ± 1 m/s | speed of sound (308.15 K, m1 = 0.01): 1520.7 ± 1 m/s | speed of sound (308.15 K, m1 = 0.03): 1522.5 ± 1 m/s | speed of sound (308.15 K, m1 = 0.05): 1524.6 ± 1 m/s | mass density (308.15 K, m1 = 0.005): 994.23 ± 0.3 kg/m3 | mass density (308.15 K, m1 = 0.01): 994.42 ± 0.3 kg/m3 | mass density (308.15 K, m1 = 0.03): 995.2 ± 0.3 kg/m3 | mass density (308.15 K, m1 = 0.05): 995.98 ± 0.3 kg/m3 | speed of sound (318.15 K, m1 = 0.005): 1536.7 ± 1 m/s | speed of sound (318.15 K, m1 = 0.01): 1537.4 ± 1 m/s | speed of sound (318.15 K, m1 = 0.03): 1539.1 ± 1 m/s | speed of sound (318.15 K, m1 = 0.05): 1541 ± 1 m/s | mass density (318.15 K, m1 = 0.005): 990.42 ± 0.3 kg/m3 | mass density (318.15 K, m1 = 0.01): 990.62 ± 0.3 kg/m3 | mass density (318.15 K, m1 = 0.03): 991.41 ± 0.3 kg/m3 | mass density (318.15 K, m1 = 0.05): 992.21 ± 0.3 kg/m3

CC(=O)N[C@@H](CS)C(=O)O [N-acetyl-L-cysteine] + O
speed of sound (288.15 K, m1 = 0.09902): 1472.9 ± 1 m/s | speed of sound (288.15 K, m1 = 0.1981): 1479.4 ± 1 m/s | speed of sound (288.15 K, m1 = 0.2976): 1485.8 ± 1 m/s | speed of sound (288.15 K, m1 = 0.397): 1492.3 ± 1 m/s | speed of sound (288.15 K, m1 = 0.4992): 1498.9 ± 1 m/s | speed of sound (288.15 K, m1 = 0.5991): 1505.4 ± 1 m/s | speed of sound (288.15 K, m1 = 0.6903): 1511.3 ± 1 m/s | mass density (288.15 K, m1 = 0.09902): 1003.53 ± 0.3 kg/m3 | mass density (288.15 K, m1 = 0.1981): 1007.96 ± 0.31 kg/m3 | mass density (288.15 K, m1 = 0.2976): 1012.41 ± 0.31 kg/m3 | mass density (288.15 K, m1 = 0.397): 1016.85 ± 0.32 kg/m3 | mass density (288.15 K, m1 = 0.4992): 1021.42 ± 0.32 kg/m3 | mass density (288.15 K, m1 = 0.5991): 1025.88 ± 0.33 kg/m3 | mass density (288.15 K, m1 = 0.6903): 1029.96 ± 0.34 kg/m3 | speed of sound (298.15 K, m1 = 0.09902): 1501.8 ± 1 m/s | speed of sound (298.15 K, m1 = 0.1981): 1507 ± 1 m/s | speed of sound (298.15 K, m1 = 0.2976): 1512.3 ± 1 m/s | speed of sound (298.15 K, m1 = 0.397): 1517.5 ± 1 m/s | speed of sound (298.15 K, m1 = 0.4992): 1522.9 ± 1 m/s | speed of sound (298.15 K, m1 = 0.5991): 1528.2 ± 1 m/s | speed of sound (298.15 K, m1 = 0.6903): 1533 ± 1 m/s | mass density (298.15 K, m1 = 0.09902): 1001.37 ± 0.3 kg/m3 | mass density (298.15 K, m1 = 0.1981): 1005.7 ± 0.31 kg/m3 | mass density (298.15 K, m1 = 0.2976): 1010.05 ± 0.31 kg/m3 | mass density (298.15 K, m1 = 0.397): 1014.39 ± 0.31 kg/m3 | mass density (298.15 K, m1 = 0.4992): 1018.86 ± 0.32 kg/m3 | mass density (298.15 K, m1 = 0.5991): 1023.22 ± 0.33 kg/m3 | mass density (298.15 K, m1 = 0.6903): 1027.21 ± 0.34 kg/m3 | speed of sound (308.15 K, m1 = 0.09902): 1523.8 ± 1 m/s | speed of sound (308.15 K, m1 = 0.1981): 1527.9 ± 1 m/s | speed of sound (308.15 K, m1 = 0.2976): 1532.1 ± 1 m/s | speed of sound (308.15 K, m1 = 0.397): 1536.3 ± 1 m/s | speed of sound (308.15 K, m1 = 0.4992): 1540.6 ± 1 m/s | speed of sound (308.15 K, m1 = 0.5991): 1544.8 ± 1 m/s | speed of sound (308.15 K, m1 = 0.6903): 1548.6 ± 1 m/s | mass density (308.15 K, m1 = 0.09902): 998.26 ± 0.3 kg/m3 | mass density (308.15 K, m1 = 0.1981): 1002.49 ± 0.31 kg/m3 | mass density (308.15 K, m1 = 0.2976): 1006.74 ± 0.31 kg/m3 | mass density (308.15 K, m1 = 0.397): 1010.98 ± 0.31 kg/m3 | mass density (308.15 K, m1 = 0.4992): 1015.35 ± 0.32 kg/m3 | mass density (308.15 K, m1 = 0.5991): 1019.61 ± 0.33 kg/m3 | mass density (308.15 K, m1 = 0.6903): 1023.51 ± 0.34 kg/m3 | speed of sound (318.15 K, m1 = 0.09902): 1539.8 ± 1 m/s | speed of sound (318.15 K, m1 = 0.1981): 1543.2 ± 1 m/s | speed of sound (318.15 K, m1 = 0.2976): 1546.7 ± 1 m/s | speed of sound (318.15 K, m1 = 0.397): 1550.2 ± 1 m/s | speed of sound (318.15 K, m1 = 0.4992): 1553.8 ± 1 m/s | speed of sound (318.15 K, m1 = 0.5991): 1557.3 ± 1 m/s | speed of sound (318.15 K, m1 = 0.6903): 1560.5 ± 1 m/s | mass density (318.15 K, m1 = 0.09902): 994.33 ± 0.3 kg/m3 | mass density (318.15 K, m1 = 0.1981): 998.44 ± 0.31 kg/m3 | mass density (318.15 K, m1 = 0.2976): 1002.57 ± 0.31 kg/m3 | mass density (318.15 K, m1 = 0.397): 1006.7 ± 0.31 kg/m3 | mass density (318.15 K, m1 = 0.4992): 1010.94 ± 0.32 kg/m3 | mass density (318.15 K, m1 = 0.5991): 1015.09 ± 0.33 kg/m3 | mass density (318.15 K, m1 = 0.6903): 1018.87 ± 0.34 kg/m3

Source: the NIST ThermoML archive (doi:10.1016/j.jct.2017.03.040)
